The numbers were not newly measured in patent publication US20220202008A1, “BAIT FOR A PEST” (FALCON LIFE SCIENCES LTD, priority 2020, published 2022), which cites them from elsewhere.

This data set has as its system mouse. As to conditions: acute dose.

With `COC(C)(C)CCCC(C)CC=CC(C)=CC(=O)OC(C)C` (stereo not shown) [methoprene, isopropyl 11-methoxy-3,7,11-trimethyldodeca-2,4-dienoate], the LD50 result is “around 5000 ppm”.
